Measurements published in patent US6432446B1, “Non-arrhythmogenic metabolite of oxybutynin” (Bridge Pharma, Inc., priority 2000, dated 2002).

Legend:
Male guinea pigs = experiment: Cardiac side effects: QTc interval of the EKG in anesthetized guinea pigs; type: in vivo, guinea pig; conditions: intravenous infusion over 30 min
Description: Male guinea pigs (450-600 g) are anesthetized with freshly prepared dialurethane sodium. The jugular vein is catheterized for iv administration of test drugs and the trachea is exposed and cannulated. Subdermal electrodes are positioned for Lead II electrocardiogram recording, monitored on a Grass Polygraph recorder, set at a paper speed of 50 nmmsec. The animals are allowed to stabilize for 30 minute after completion of surgery, and three baseline EKG recordings are then made at 10-minute intervals. The animals are then given a dose of the test compound or vehicle as an intravenous inflision over 30 min. EKG recordings are used to determine QT intervals and heart rates. To compensate for variations in heart rates, QTc intervals are calculated from QT- and RR-intervals as known to those skilled in the art. Prolongation of QTc is indicative of a prolonged action potential, caused by an inhibition of the delayed rectifier potassium channel. Prolongation of QTc is the known cause of Torsades de Pointes ventricular fibrillation by drugs such as terfenadine and astemizole (now withdrawn from the market).

[1] = isomers of racemic oxybutynin; cited from earlier work
[2] = test system: patients with conditions characterized by involuntary bladder contractions; conditions: clinical studies; cited from earlier work
[3] = test system: human recombinant muscarinic receptor subtypes; experiment: Ligand binding studies: muscarinic receptors; conditions: compared with the des-ethyl metabolite
Description: 1. Ligand Binding Studies: Muscarinic Receptors.
The experiments are carried out on membranes prepared from SF9 cells infected with baculovirus to express human recombinant muscarinic receptor subtypes. After incubation with the test article and the proper radioligand and washing, bound radioactivity is determnined with a liquid scintillation counter, using a commercial scintillation cocktail. The specific radioligand binding to each receptor is defined as the difference between total binding and nonspecific binding determined in the presence of an excess of unlabelled ligand. IC50 values (concentrations required to inhibit 50% of specific binding) are determined by non linear regression analysis of the competition curves. These parameters are obtained by curve fitting using Sigmaplot software.

[4] = test system: benzothiazepine receptors; experiment: Affinity for benzothiazepine receptors; type: binding; conditions: compared with the des-ethyl metabolite
[5] = drugs withdrawn from the market because of this side effect; cited from earlier work
[6] = test system: Strips of intestinal smooth muscle tissue
Description: 2. Functional Characterization of Antimuscarinic/Antispasmodic Activity.
Strips of intestinal smooth muscle tissue are removed from the body of male Hartley guinea pigs weighing 400-600 g. The strips are suspended in an oxygenated buffer of the following composition, in mM: NaCl, 133; KCl, 4.7; CaCl2, 2.5; MgSO4, 0.6; NaH2PO4, 1.3; NaHCO3, 16.3; and glucose, 7.7, or a similar balanced physiological solution. They are maintained at constant temperature. Contractions are recorded with isometric transducers (Model FT-10) on an ink-writing polygraph.
In each experiment up to seven strips are removed from a single animal, suspended in individual tissue chambers and allowed to equilibrate with the bathing solution for one hour before proceeding with the experiment.
In order to assess the viability of each tissue and to serve as a frame of reference, contractions of each strip of tissue are recorded initially in response to exposure to a tissue medium in which the NaCl was replaced by KCl to yield a concentration of 137.7 mM KCl in the medium. […] Then, leaving one strip untreated and/or one strip exposed to the test solution to serve as control tissue(s), the remaining strips each are exposed for one hour to one concentration of an antagonist. Finally, the responses to increasing concentrations of carbachol followed by exposure to 137.7 mM KCl are recorded a second time. To determine whether antagonists decrease the peak response to agonists, the peak tension developed by each strip during the second set of determinations is expressed as a percent of the peak tension developed during the first concentration-effect determination. Then, for each antagonist the resultant data are analyzed using standard statistical methodology.

[7] = Risk for torsades des pointes of drugs combined with oxybutynin

Compound: CCN(CC)CC#CCOC(=O)[C@](O)(c1ccccc1)C1CCCCC1 (single isomer, unassigned) [R(−)-isomer, R(−)-oxybutynin]
- prolongation of the QTc-interval of the EKG (Male guinea pigs): cause a prolongation of the QTc-interval
- anticholinergic activity [1]: practically all of the anticholinergic activity of OXY resides in the R(−)-isomer

Compound: CCN(CC)CC#CCOC(=O)C(O)(c1ccccc1)C1CCCCC1 (racemic) [oxybutynin, 4-diethylamino-2-butynyl cyclohexylphenylglycolate]
- prolongation of the QTc-interval of the EKG (Male guinea pigs): causes a prolongation of the QTc-interval
- bladder capacity [2]: increases bladder capacity
- frequency of involuntary contractions of the detrusor muscle [2]: diminishes the frequency of involuntary contractions of the detrusor muscle
- initial desire to void [2]: delays the initial desire to void

Compound: didesethyloxybutynin [didesethyl metabolite]
- prolongation of the QTc-interval of the EKG (Male guinea pigs): does not prolong the QTc interval
- affinity for muscarinic receptors [3]: somewhat lower affinity
- affinity for benzothiazepine receptors [4]: somewhat lower affinity

Compound: COc1ccc(CCN2CCC(Nc3nc4ccccc4n3Cc3ccc(F)cc3)CC2)cc1 [astemizole]
- prolongation of QTc [5]: found to cause prolongation of QTc

Compound: CCNCC#CCOC(=O)C(O)(c1ccccc1)C1CCCCC1 (racemic) [desethyl metabolite of oxybutynin, 4-ethylamino-2-butynyl cyclohexyl-phenylglycolate]
- prolongation of the QTc-interval of the EKG (Male guinea pigs): free from said cardiac side effect

Compound: CCNCC#CCOC(=O)[C@](O)(c1ccccc1)C1CCCCC1 (single isomer, unassigned) [R-isomer of the des-ethyl metabolite of oxybutynin]
- antimuscarinic / anticholinergic activity [6]: potent antimuscarinic agent

Compound: CCNCC#CCOC(=O)[C@@](O)(c1ccccc1)C1CCCCC1 (single isomer, unassigned) [S-isomer of the des-ethyl metabolite of oxybutynin]
- antimuscarinic / anticholinergic activity [6]: weak anticholinergic activity
- spasmolytic activity [6]: spasmolytic agent

Compound: CC(CC(c1ccccc1)c1ccccc1)NC(C)(C)C (stereo not drawn) [terodiline]
- prolongation of QTc [5]: found to cause prolongation of QTc

Compound: CCN(CC)CC#CCOC(=O)[C@@](O)(c1ccccc1)C1CCCCC1 (single isomer, unassigned) [S(+)-isomer, S(+)-oxybutynin]
- prolongation of the QTc-interval of the EKG (Male guinea pigs): cause a prolongation of the QTc-interval
- spasmolytic activity [1]: direct spasmolytic activity

Compound: CC(=O)N1CCN(c2ccc(OCC3COC(Cn4ccnc4)(c4ccc(Cl)cc4Cl)O3)cc2)CC1 (stereo not drawn) [ketoconazole]
- risk for torsades des pointes [7]: further increase the risk for torsades des pointes
